From patent US9353157B2 (priority 2007, dated 2016) come the findings set out here.

For one assay, the system named is influenza A/Cal/07/04. Also on record: species or system ferret. The note with it: in vivo; for ferrets with significant respiratory distress, high fever, sneezing / signs of influenza: 0.3 mg/kg.
For assay [1], the system named is influenza A/PR/8/34 (H1N1). Briefly: Inhibition of influenza virus-induced hemagglutination, A/PR/8/34. It is filed as cell-based. Conditions: for concentration inhibiting influenza virus-induced hemagglutination: optimal numbers of red blood cells and concentrations of virus. Here is the method:
Studies have been conducted with various influenza strains to better understand the mechanism of action of the peptides of the invention, e.g., to determine which step in the viral replication cycle is inhibited by F3, F1, and related influenza virus inhibitory peptides. At optimal numbers of red blood cells and concentrations of influenza A/PR/8/34 (H1N1), both F3 and F1 inhibited influenza virus-induced hemagglutination at about 10 μM concentrations.

The subject of assay [2] is H3N2 influenza A/Cal/07/04. Details: species or system ferret. The note with it: in vivo; for ferrets with significant/severe respiratory distress (high fever, sneezing): 0.3 mg/kg.
A further assay concerns influenza A virus. Briefly: Plaque reduction / virus infectivity assays, influenza A virus (strain not specified). Format: cell-based. Conditions: for pIC50: normal-sized plaques, read-out: potency in virus infectivity assays, normal-sized plaques. Here is the method:
(§1) Using an immunoplaque assay with AVICEL® microcrystalline cellulose as the overlay (Matrosovich et al., 2006), plaques are detected by fixing the monolayers and staining with a specific antibody to the influenza virus nucleoprotein. In the peptide inhibition assay, peptide is preincubated with about 100 plaque forming units (pfu) of the virus for approximately 1 hour, then used to infect the monolayers. Two conditions were used for the incubation: (1) standard condition in which the peptide is included in the overlay at the same concentration that was used in the preincubation step, or (2) a condition in which the peptide is not included in the overlay.
(§2) F3 was evaluated for inhibition of multiple subtypes of influenza A viruses utilizing Madin-Darby Canine Kidney (“MDCK”) cell plaque assays performed using the A/WSN/33 (H1N1) and A/Udorn/72 (H3N2) subtypes of influenza A virus. Dilutions of 50 μM to 2.5 μM of F3 and the randomly scrambled control peptide (SEQ ID NO: 14) were used to evaluate the effects of these peptides on viral infectivity. Six dilutions of F3 and of the control peptide were tested against the H1N1 viral subtype; and another six dilutions of each peptide were tested against the H3N2 viral subtype.

A further assay deals with H1N1 influenza A virus. The experiment in a line: MDCK cell immunoplaque / plaque reduction assay, H1N1. It is filed as cell-based. Conditions: H1 influenza A virus subtype. How it is done:
as §1, §2
(§3) At low nM concentrations (<10 nM) for condition (1), or low μM ([…]) for condition (2), the presence of “mini-plaques” were apparent.
A general note: Plaques are areas of infected cells; plaque reduction assays count them against a control.

For the next assay, the system named is H3N2 influenza A virus. Briefly: MDCK cell immunoplaque / plaque reduction assay, H3N2. It is filed as cell-based. The note with it: H3 influenza A virus subtype. How it is done: as §1, §2, §3
Assay [3] relates to influenza B (B/Shanghai/10/2003).
Assay [4] has as its system influenza B (B/Shanghai/361/2002).
For assay [5], the system named is recombinant H5N1 influenza virus.

pIC50: −log10 of the molar value. Values joined by “and” are separate entries in the source; they are usually repeats but may differ in a detail not shown here. Equal values may be shown once. Ends that are not written are not given here. Bounds are passed on as bounds.

“SWLVNKIYLTDDEVEL (Scrambled version of residues 84-99 of influenza A/H3 HA2) [scrambled control peptide, reference compound]”: in the assay with influenza A/Cal/07/04, the “lung presentation (gross pathology)” value is “evidence of inflammation”; the “tissue pathology (histopathology)” value is recorded as “infiltrations, bronchial inflammation, with bronchial exudates”; the “ferrets with significant respiratory distress, high fever, sneezing / signs of influenza” value was “all 12”. In addition, the inhibition of hemagglutination entry in assay [1] (at any concentration) was “did not inhibit”. For the same substance, in assay [2], the “ferrets displaying significant nasal discharge” value was found to be 100%; the “ferrets presenting with lethargy” value came out at 50%; the “ferrets with significant/severe respiratory distress (high fever, sneezing)” value is “all”. The anti-viral properties result with influenza A virus was “no discernable anti-viral properties”. For the same substance, the “inhibition of influenza A virus plaque formation” value with influenza A virus (under any condition (peptide in overlay or not)) is recorded as “did not inhibit”.

As for VDDGFLDIWTYNAELLVLL [F1], in assay [1], the “concentration inhibiting influenza virus-induced hemagglutination” value is “about 10 μM”. Moreover, the “antiviral activity in plaque assays” value with H1N1 influenza A virus and in the assay on H3N2 influenza A virus was “potent (picomolar)” throughout. Besides, the pIC50 in the assay on influenza A virus was about 9.70.

VEDTKIDLWSYNAELL-NH2 [F3]: in the assay with influenza A/Cal/07/04, the “animals that developed mild signs of influenza” value is reported as “two”; the “lung presentation (gross pathology)” value is on record as “normal lung presentations”; the “pathological responses (respiratory distress, nasal discharge, activity), FIG. 6” value is recorded as “significantly reduced pathological responses”; the “reduction of peak titers of influenza virus in nasal washes” value is “greater than 2.0 log10”. Besides, in the assay on influenza A/Cal/07/04, the “reduction of peak titers of influenza virus in the lungs” value is “greater than 6.0 log10”; the “spread of the virus to the lower respiratory tract and to other organs” value is reported as “effectively blocked”; the “tissue pathology (histopathology)” value is “markedly reduced pathology”; the “ferrets with significant respiratory distress, high fever, sneezing / signs of influenza” value is on record as “none”. The substance also had a pIC50 in [3] of over 8.30. Besides, the “concentration inhibiting influenza virus-induced hemagglutination” value in assay [1] is listed as “about 10 μM”. In addition, in assay [4], the pIC50 was over 8.30. In [2], the “clinical signs of influenza” value is “no clinical signs of influenza”; the “ferrets with very mild respiratory signs with slight fever” value is 2/5 and 1/6; the “ferrets with significant/severe respiratory distress (high fever, sneezing)” value is “none”. In addition, the pIC50 in [5] was over 8.30. Besides, in the assay with influenza A virus, the anti-viral properties entry is on record as “potent anti-viral properties”, the “inhibition in plaque reduction assays” value is on record as “picomolar inhibition” and the pIC50 was about 9.70. Moreover, the “concentration at which mini-plaques were apparent” value with influenza A virus (condition (1): peptide included in the overlay) is on record as under 10 nM.
